Assay results as given in the NIST ThermoML archive (doi:10.1007/s10765-014-1740-z).
Numbers after ± are expanded uncertainties.

Conditions: Crystal; visual observation

O=c1cc(-c2ccccc2)oc2cc(O)c(O)c(O)c12 [baicalein]
Triple point temperature: 537 ± 10 K
